ChEMBL document CHEMBL1138734, “Modulation of binding strength in several classes of active site inhibitors of acetylcholinesterase studied by comparative binding energy analysis” (J Med Chem, 2004)

target: T1, Acetylcholinesterase (Homo sapiens, UniProt P22303)
T1 sequence (P22303 whole entry): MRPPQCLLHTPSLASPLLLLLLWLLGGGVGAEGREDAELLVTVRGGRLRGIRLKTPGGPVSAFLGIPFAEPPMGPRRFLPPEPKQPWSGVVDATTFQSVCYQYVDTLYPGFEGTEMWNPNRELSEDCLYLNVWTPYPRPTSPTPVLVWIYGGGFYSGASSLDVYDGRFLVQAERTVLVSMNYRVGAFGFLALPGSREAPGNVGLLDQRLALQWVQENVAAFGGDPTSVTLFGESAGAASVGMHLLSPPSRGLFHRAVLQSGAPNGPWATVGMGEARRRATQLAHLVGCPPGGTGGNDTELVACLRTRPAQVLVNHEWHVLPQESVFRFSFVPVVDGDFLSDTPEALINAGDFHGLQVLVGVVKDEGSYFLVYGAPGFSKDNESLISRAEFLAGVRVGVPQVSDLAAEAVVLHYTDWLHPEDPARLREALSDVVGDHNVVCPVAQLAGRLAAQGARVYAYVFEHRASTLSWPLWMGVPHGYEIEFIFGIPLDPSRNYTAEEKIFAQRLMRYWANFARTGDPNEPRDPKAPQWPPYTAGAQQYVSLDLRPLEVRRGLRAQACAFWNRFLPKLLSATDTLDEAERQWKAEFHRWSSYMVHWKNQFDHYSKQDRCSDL
Description: Inhibitory activity against human erythrocyte acetylcholinesterase

| Compound | IC50 [nM] |
| --- | --- |
| C=C1c2c(Cl)cccc2N=C2CCCCCN12 | 1700 |
| C=C1c2ccc(Cl)cc2N=C2CCCCCN12 | 158 |
| C=C1c2cc(Cl)ccc2N=C2CCCCCN12 | 501 |
| C=C1c2ccccc2N=C2CCCCCN12 | 3720 |
| C=C1c2cccc(Cl)c2N=C2CCCCCN12 | 1510 |
| Nc1c2c(nc3cnccc13)OCCC2 | 41700 |
| Nc1c2c(nc3cccc(F)c13)CCCC2 | 79.4 |
| Nc1c2c(nc3ccc(Cl)cc13)OCCC2 | 10000 |
| CCC1=CC2Cc3nc4cc(Cl)ccc4c(N)c3C(C1)C2 (stereo not given) | 0.324 |
| O=c1c2ccc(Cl)cc2nc2n1CCCCC2 | > 100000 |
| S=c1c2ccc(Cl)cc2nc2n1CCCCC2 | > 100000 |

target: T1, Acetylcholinesterase; experiment: Inhibitory activity against of human erythrocyte acetylcholinesterase

| Compound | IC50 [nM] |
| --- | --- |
| NC1=C2CCCCC2=NC2CCCCC12 (stereo not given) | 363 |

target: T2, Acetylcholinesterase (Bos taurus, UniProt P23795)
T2 sequence (P23795 whole entry): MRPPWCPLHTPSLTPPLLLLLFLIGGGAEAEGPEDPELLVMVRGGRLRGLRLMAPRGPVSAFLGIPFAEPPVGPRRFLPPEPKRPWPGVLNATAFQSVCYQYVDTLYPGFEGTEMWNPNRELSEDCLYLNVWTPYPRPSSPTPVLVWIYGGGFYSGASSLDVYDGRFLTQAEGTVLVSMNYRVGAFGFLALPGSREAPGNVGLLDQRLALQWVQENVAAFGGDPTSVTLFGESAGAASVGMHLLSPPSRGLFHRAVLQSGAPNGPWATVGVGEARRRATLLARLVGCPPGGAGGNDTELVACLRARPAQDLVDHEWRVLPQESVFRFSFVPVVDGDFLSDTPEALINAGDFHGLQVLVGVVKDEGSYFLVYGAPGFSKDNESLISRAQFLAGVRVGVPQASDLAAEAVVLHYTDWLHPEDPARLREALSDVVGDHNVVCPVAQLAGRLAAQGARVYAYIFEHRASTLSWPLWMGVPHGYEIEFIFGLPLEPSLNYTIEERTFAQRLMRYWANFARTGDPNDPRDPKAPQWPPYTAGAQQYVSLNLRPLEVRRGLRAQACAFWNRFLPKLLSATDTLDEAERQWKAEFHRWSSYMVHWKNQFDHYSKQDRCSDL
Description: In vitro inhibitory activity against bovine acetylcholinesterase

| Compound | IC50 [nM] |
| --- | --- |
| CCC1=CC2Cc3nc4cc(Cl)ccc4c(N)c3C(C1)C2 (stereo not given) | 1.29 |

target: T1, Acetylcholinesterase; remark: another data set of the same source
Description: In vitro inhibitory activity against human erythrocyte acetylcholinesterase

| Compound | IC50 [nM] |
| --- | --- |
| Nc1c2c(nc3cccc(F)c13)C1CC(C2)C1 | 28.8 |
| Nc1c2c(nc3ccc(O)cc13)CCCC2 | 162 |
